In patent US20020183258A1, “Process of inhibiting cell death in injured cartilage” (The Scripps Research Institute, priority 2001, published 2002):
Entries after “also recorded” stand apart in the source; their conditions may differ. Where a SMILES comes first, the peptide text is derived from it. The star is where a group is joined. Cbz = O=C(OCc1ccccc1)*; CH2F = FC*

Legend:
[1] = tested on: bovine cartilage explants; experiment: Load-induced chondrocyte apoptosis (TUNEL) in mechanically injured bovine cartilage explants; format: cell-based; conditions: for Mean (±SD) apoptosis rates, Loaded + Agent: bovine femoral condyle cartilage, loaded at 23 MPa, rate = percentage of TUNEL positive cells, n = 8 to 10
From the text: Macroscopically normal weight bearing portions of freshly slaughtered skeletally mature bovine femoral condyles were selected from animals between 2 and 6 years of age (Animal Technologies, Austin, Tex.). Only joints without visible signs of degeneration or aging were selected. Using sterile techniques, fall thickness cartilage was separated from underlying subchondral bone with a scalpel and 5 mm diameter cylindrical explants, ranging from 1 to 1.8 mm in height, cored out using a dermal punch (Acuderm, Inc., Ft. Lauderdale, Fla.). Explants taken from adjacent sites were used as matched controls for each group in each experiment to minimize variation in cartilage response due to differences in thickness and location within the joint. Each explant was weighed and allowed to stabilize at 37° C. and 5% CO2 for 48 hours in 1 ml of Dulbecco's modified Eagle's medium (DMEM) supplemented with 10% fetal bovine serum (FBS), L-glutamine, antibiotics and 50 μg/ml ascorbic acid.
Full thickness bovine cartilage explants, 5 mm in diameter, were subjected to a single static mechanical load of 7, 14 or 23 MPa for 500 msec. This model simulates traumatic cartilage injury and the loads were similar in magnitude to those generated during traumatic joint injury. Glycosaminoglycan (GAG) release and percent apoptotic cells were measured. The effect of a pan-caspase inhibitor, z-VAD.fmk [benzyloxycarbonyl-Val-Ala-Asp (OMe) fluoromethylketone] in preventing chondrocyte apoptosis was determined. z-VAD.fmk is a fluoromethylketone irreversible inhibitor of a broad spectrum of caspases. […] The percentage of apoptotic chondrocytes was related to load intensity and correlated with the level of GAG release from cartilage. […] This identifies a new approach to limit traumatic cartilage injury and the subsequent development of secondary osteoarthritis.
A model to simulate acute joint injury was used in this study based on injury models reported by Repo and Finlay, and Jeffrey et al. (Repo, et al. (1977) J. Bone Joint Surg. Am. 59A, 1068-1076, Jeffrey, et al. (1995) Arch. Biochem. Biophys. 322, 87-96). Although these reported models impacted cartilage using drop towers, a more controlled method was chosen for applying and maintaining stress or strain as follows. An Instron 8511 servohydraulic testing machine (Instron Corporation, Boston, Mass.) was used to mechanically load the cartilage explants. Explants were transported from the incubator to the Instron machine in sealed cell culture dishes. The explant was centralized on a stainless steel loading platform and a radially unconfined compressive load was applied through an impermeable stainless steel platen. A small preload (0.1 MPa) was applied for 2 minutes, followed by a single 500 msec trapezoidal loading waveform at the selected stress. The stress rose from 0.1 MPa to the chosen stress level in 100 msec and was maintained for 500 msec. Three stress levels were chosen to represent acute joint injury. 7 MPa has been reported to be the upper limit of physiologic stress developed during activities of daily living (von Eisenhart, et al. (1999) J. Orthop. Res. 17, 532-539). 23 MPa is the stress above which the underlying bone has been reported to fracture (Haut (1989) J. Orthop. Res. 7, 272-280). Control explants were placed in the loading apparatus but not loaded. Both control and loaded explants were re-cultured in fresh culture media immediately after loading. Stress and strain data were recorded during the test. […]

[2] = tested on: human cartilage explants; experiment: Load-induced chondrocyte apoptosis (TUNEL) in mechanically injured human cartilage explants; format: cell-based; conditions: for Mean (±SD) apoptosis rates, Loaded + Agent: human cartilage (femoral condyles and tibial plateaus), n = 8 to 10
From the text: Macroscopically normal tibial and femoral articular surfaces were selected from human cadaver donors between 18 and 45 years of age. Using sterile techniques, full thickness cartilage was separated from underlying subchondral bone with a scalpel. 5 mm diameter cylindrical explants, ranging from 2 to 2.8 mm in thickness, cored out using a dermal punch (Acuderm, Inc., Ft. Lauderdale, Fla.). Explants taken from adjacent sites were used as matched controls for each group in each experiment to minimize variation in cartilage response due to differences in thickness and location within the joint. Each explant was weighed and allowed to stabilize at 37° C. and 5% CO2 for 48 hours in Dulbecco's modified Eagle's medium (DMEM) supplemented with 5% fetal bovine serum (FBS), L-glutamine, antibiotics and […] ascorbic acid.
An Instron 8511 servohydraulic testing machine (Instron Corporation, Boston, Mass.) was used to mechanically load the cartilage explants. Explants were transported from the incubator to the Instron machine in sealed cell culture dishes. The total time duration of loading for a single experiment varied from approximately 1 to 2 hours depending on the number of samples. […] Stress and strain data were recorded during the test.
To determine whether caspase inhibitors could prevent apoptosis, explants were cultured in […] z-VAD.fmk (a broad spectrum caspase inhibitor) immediately after injury (30% strain level). Percentage apoptosis was measured at 96 hours post-injury in three groups (control, loaded, and loaded with z-VAD.fmk) with ten explants each in two separate experiments.
Explants loaded as described above were fixed in 10% buffered formalin. […] This was detected by immunohistochemical staining with M30 (Cytodeath, Boehringer Mannheim, Eugene, Oreg.), a monoclonal antibody that recognizes the neo-epitope exposed in early apoptosis.
In an additional study the apoptosis response of human articular cartilage to mechanical stress was examined. […] GAG release and percentage of cells undergoing apoptosis were measured at 96 hours after injury. […]

[3] = tested on: bovine cartilage explants; experiment: Glycosaminoglycan (GAG) release assay (dimethylene blue) in injured bovine cartilage explants; format: cell-based; conditions: loaded, z-VAD.fmk 100 μM, 48 hours
Description: Glycosaminoglycan release assay. To estimate GAG depletion and release, the concentration of sulfated glycosaminoglycans was measured using 1,9-Dimethylene Blue (DMMB) as a monitor of spectrophotometric changes which occur during the formation of the sulfated GAG dye complex (Fardale, et al. (1986) Biochim. Biophys. Acts. 883, 173-177, Goldberg, et al. (1993) Agents Actions 39 Spec No, C163-C165). For GAG content measurement, samples were digested in papain and collagenase and the concentration of sulfated GAG measured using DMMB. To generate a standard curve, chondroitin-6-sulfate (Sigma, St. Louis, Mo.) was used at concentrations between 1 and 200 μg/ml. GAG released in media was normalized to the pooled mean GAG content of Control (uninjured) cartilage explants and expressed as a percentage of total GAG content.
To determine whether apoptosis could be prevented by caspase inhibition, 12 explants were loaded at 23 MPa (High Load) and cultured for 48 hours. […] Six more explants were used as non-loaded controls. Percent apoptosis and GAG release in media was measured as described above.
Release of sulfated glycosaminoglycans (GAG) was analyzed as a measure of the extent of damage sustained by the explant. […] GAG depletion was assessed by dimethylene blue binding assays of the culture supernatants and this correlated with the reduced of safranin O staining of the cartilage sections.

[4] = tested on: rabbits with ligament transection; experiment: Intraarticular injection of caspase inhibitor in rabbits with anterior cruciate ligament transection (ACLT); format: in vivo, New Zealand White rabbits
Description: A pilot study was performed to assess feasibility and efficacy of caspase inhibition in vivo. Eight New Zealand White rabbits were divided into anterior cruciate ligament transection (ACLT) and ACLT+caspase inhibitor (CI) groups. Both groups underwent bilateral ACLT. The ACLT+CI group was treated with intra-articular injections of 25 μg of z-VAD.fmk three times per week for six weeks while the control group received saline injections. Rabbits were euthanised at six weeks and femoral and tibial articular cartilage evaluated by India ink staining and histologic Mankin grading after Safranin-O stain.
Histologically, more knees from the ACLT group had higher Mankin scores. 87% (⅞) ACLT knees had grades 5 or higher, while 50% ( 4/8) ACLT+CI knees were graded 5 or higher. The India ink stained femoral condyles were photographed and digital images were used to quantify the surface areas of the lesions.

C[C@@H]1C[C@H]2[C@@H]3CCC4=CC(=O)C=C[C@]4(C)[C@@]3(F)[C@@H](O)C[C@]2(C)[C@@]1(O)C(=O)CO [Dexameth.]
Mean (±SD) apoptosis rates, Loaded + Agent [1]: 47 (±11.2)

IGF-1: agent tested for pharmacologic modulation of apoptosis after cartilage injury in vitro
Mean (±SD) apoptosis rates, Loaded + Agent [1]: 42 (±10.9)
Mean (±SD) apoptosis rates, Loaded + Agent ([2]; loaded at 30% strain): 10 (±6.2)

COC(=O)CC(NC(=O)C(C)NC(=O)C(NC(=O)OCc1ccccc1)C(C)C)C(=O)CF (stereo not drawn) [z-VAD.fmk, benzyloxycarbonyl-Val-Ala-Asp (OMe) fluoromethylketone] (Cbz-Val-Ala-Asp(OMe)-CH2F; configuration not given here)
reduction in the apoptosis rate ([1]; bovine explants, high and intermediate load groups, vs loaded without agent): > 50%
effect on chondrocyte apoptosis after mechanical injury ([1]; bovine explants, single static load, 500 msec): reduced chondrocyte apoptosis after mechanical injury
Mean (±SD) apoptosis rates, Loaded + Agent [1]: 31 (±13.9)
effect on GAG release / GAG depletion after mechanical injury [3]: reduction in GAG release; also recorded: normalization of the GAG depletion
Mean (±SD) apoptosis rates, Loaded + Agent ([2]; loaded at 23 MPa (footnote *)): 34 (±10.2)*
reduction in apoptosis rates ([2]; human explants, 30% strain, cultured in 100 mM z-VAD.fmk after injury, 96 hours post-injury, p<0.05): 50%
reduction of the size (surface area) of the cartilage lesions ([4]; rabbit ACLT, India ink stained femoral condyles, digital images, six weeks, 25 μg intra-articular three times per week): ~80%
India ink grade of cartilage lesions ([4]; rabbit ACLT, six weeks, 25 μg intra-articular three times per week (ACLT saline: grade III to IVa)): ranged from II (minimum fibrillation), with only one rabbit (two knees) having a Grade III to IVa lesion
area of cartilage lesions under India ink examination ([4]; rabbit ACLT, six weeks, vs ACLT saline group): lesions that were smaller in area
knees with histologic Mankin grades 5 or higher ([4]; rabbit bilateral ACLT, 25 μg intra-articular three times per week for six weeks, 4/8 knees (ACLT saline 87%)): 50%
